Data reported in the NIST ThermoML archive (doi:10.1016/j.jct.2011.05.036).
± gives the expanded uncertainty stated by the source.

Assay: mn = molality of the nth substance listed, in mol/kg
Settings: 298.15 K, 101 kPa, Liquid, Vibrating tube method

| mass density (m1 = 0.1262) [kg/m3] | mass density (m1 = 0.2647) [kg/m3] | mass density (m1 = 0.6529) [kg/m3] | mass density (m1 = 1.012) [kg/m3] | mass density (m1 = 1.477) [kg/m3] | mass density (m1 = 2.03) [kg/m3] | mass density (m1 = 2.537) [kg/m3] | mass density (m1 = 3.196) [kg/m3] | mass density (m1 = 3.75) [kg/m3] | mass density (m1 = 0.0212) [kg/m3] | mass density (m1 = 0.0584) [kg/m3] | mass density (m1 = 0.1012) [kg/m3] | mass density (m1 = 0.2396) [kg/m3] | mass density (m1 = 0.6942) [kg/m3] | mass density (m1 = 1.248) [kg/m3] | mass density (m1 = 2.273) [kg/m3] | mass density (m1 = 3.243) [kg/m3] | mass density (m1 = 4.387) [kg/m3] | mass density (m1 = 5.781) [kg/m3] | mass density (m1 = 7.087) [kg/m3] | Structure (SMILES) |
| --- | --- | --- | --- | --- | --- | --- | --- | --- | --- | --- | --- | --- | --- | --- | --- | --- | --- | --- | --- | --- |
| 1006.93 ± 0.14 | 1017.35 ± 0.14 | 1044.51 ± 0.14 | 1067.2 ± 0.14 | 1093.32 ± 0.15 | 1120.89 ± 0.16 | 1142.98 ± 0.17 | 1168.39 ± 0.19 | 1187 ± 0.2 | – | – | – | – | – | – | – | – | – | – | – | O=S(=O)(O)CC(O)CN1CCOCC1 (stereo not given) [3-morpholino-2-hydroxypropanesulfonic acid] + O |
| – | – | – | – | – | – | – | – | – | 998.4 ± 0.13 | 1000.76 ± 0.13 | 1003.44 ± 0.13 | 1011.89 ± 0.13 | 1037.46 ± 0.13 | 1064.7 ± 0.13 | 1106.41 ± 0.14 | 1138.03 ± 0.15 | 1168.14 ± 0.16 | 1195.72 ± 0.17 | 1217.61 ± 0.18 | O=S(=O)(O)CCCN1CCOCC1 [4-morpholinepropanesulfonic acid] + O |
